Measurements: US5721106A, “In Vitro method for screening β-amyloid deposition” (Regents of the University of Minnesota, priority 1994, dated 1998)
Ends that are not written are not given here.

What was measured:
AD plaques = assay: Deposition of ^125 I-labelled β-amyloid peptides onto plaques in AD brain tissue (homogenate binding, autoradiography); parameters: species or system human
Procedure: Fragments labelled in accordance with the method described herein can be combined with amyloid plaque derived from Alzheimer's disease tissue or other amyloid substance such as silk, and tested for activity, for example, their ability to deposit on these materials.
Brain tissue was obtained form normal and Alzheimer's disease patients at 0.5 to 14 hours postmortem, frozen on dry ice after collection, and stored at -20° C. until use. For filter binding studies, tissue homogenates were prepared after the method of H. P. Too and M. R. Hanley, Biochem. J. 252:545 (1988), the disclosure of which is incorporated by reference herein. Tissue was homogenized (Polytron, setting 7-8, 5-10 sec) in 5-10 volumes of 50 mM Tricine (pH 7.5) containing 10% sucrose and protease inhibitors (0.01% bacitracin, 0.002% soybean trypsin inhibitor, 0.0002% chicken egg trypsin inhibitor, 1 mM benzamidine hydrochloride) and pelleted at 10,000 g for 20 minutes. The homogenate was then resuspended and washed several times in Tricine buffer containing 120 mM NaCl, 10 mM EDTA, 300 mM KCl and centrifuged at 40,000 g for 20 minutes and stored at -20° C. for less than two months. Membranes (equivalent to about 30 mg tissue) were resuspended in 0.5 ml 50 mM TrisHCl (pH 7.5) containing 1 mg/ml bovine serum albumin (BSA), 10 mM MnCl2, 0.004% bacitracin, 0.002% chymostatin, 0.004% leupeptin, 0.1% dimethylsulfoxide for 30 minutes prior to addition of the radioligand (10^-11 to 10^-9 M) and various concentrations of unlabelled peptides in the same buffer.
After incubating for two hours at room temperature, the homogenates (final volume 0.575 ml) were filtered through glass fiber filters (Whatman GF/D), presoaked for at least two hours in 1 mg/ml BSA and rinsed with 25 mM Tricine (pH 7.5). After washing twice with 25 mM TrisHCl (pH 7.5) at room temperature, the filters were counted in a gamma counter.
For tissue autoradiography, unfixed tissue was serially sectioned at 5-15 μm and thaw-mounted onto gelatin-coated slices. Slide-mounted sections were stored at -20° C. in closed boxes over desiccant for less than three months before use. Sections were preincubated for 30 minutes and incubated with the radioligand for two hours under the same conditions according to the aforedescribed homogenate binding study. Alternatively, 50 mM TrisHCl rather than Tricine may be used as the buffer. For estimating nonspecific binding, paired serial sections were incubated with the radioligand in the presence of a 10^4 to 10^5 fold excess of the unlabelled peptide. Following incubation with the radioligand, the slides were washed with 50 mM TrisHCl pH 7.5 (four times, two minutes each at 4° C.), then dried at 4° C. and stored in closed boxes over desiccant at room temperature overnight. The fully dried slides were then placed in apposition to tritium-sensitive film alongside iodinated standards. After one week's exposure at -20° C., the film was developed, fixed and washed. […] This approach generated film autoradiograms for quantitative densitometry,a high resolution emulsion autoradiograms for detailed histology, and a counterstained section for identification of cell types from each tissue section.
Briefly peptides were purchased or synthesized by fluorenemethoxycarbonyl chemistry on polystyrene resins, using acid-labile blocking groups for sidechain protection, cleaved with trifluoroacetic acid, and purified by RP-HPLC. […] Autoradiograms were quantitated by densitometry. […] To study the peptide fragments in water we developed a novel approach, measuring NMR data at 750 MHz using a prototype 10 mm ^1 H pulsed field gradient probe. Modified two-dimensional homonuclear TOCSY and NOESY experiments were measured at several pH values and structural information was derived using standard methods.

adult rat brain = assay: Binding of radiolabelled rat β-amyloid peptide to rat brain
ceilan katia yarn (silk) = assay: Deposition of radiolabelled β-amyloid peptides onto silk; assay type: binding, Bombyx silkworm; details: in the presence of Triton X-100 (FIG. 5)
Procedure: Peptide deposition was conducted and detected as described in Example 2, except that instead of using brain tissue obtained from patients with Alzheimer's disease, silk was used as a template for β-amyloid deposition. The silk specimens were wound about or placed on a glass microscope slide and treated exactly as a piece of Alzheimer's disease (AD) brain tissue was treated in Example 2, using the same solutions, incubations times, etc. Experiments involving AD brain sections and control fabrics, such as nylon and cotton, were conducted in parallel.
Although screens of the many available silks were done at pH 8.5, later experiments were conducted at a preferably lower pH. Silk deposition experiments were done in 96-well plates. Labelled β-amyloid peptide concentration ranged from 20-100 pM, and the amount of silk used per assay ranged 0.5 to 5 mg.

silk = assay: deposition of radiolabelled peptide onto ceilan katia yarn with Triton X-100
[1] = target: amyloid plaques in Alzheimer's disease brain tissue (homogenates and thin sections); assay: deposition of labelled fragment

In the case of “Radiolabelled rat β-amyloid peptide^1-40: radiolabelled rat β-amyloid peptide 1-40 (DAEFGHDSGFEVRHQKLVFFAEDVGSNKGAIIGLMVGGVV; also: radiolabelled, label site not given here; UniProt P08592 672-711, looked up)”, the “binding to Alzheimer's disease or normal human tissue” value (AD plaques) is reported as “failed to bind” and the “binding to adult rat brain” value (adult rat brain) is reported as “failed to bind”.

In the case of “βA(1-40)-NH2: derivatized 40-mer, with a carboxyamide at the C-terminus”, the “deposition of radiolabelled peptide onto ceilan katia yarn (silk)” value (ceilan katia yarn (silk)) is reported as “active” and the “deposition activity of fragment (active / not active)” value (AD plaques; labelled fragment combined with AD amyloid plaque or silk, relative to βA(1-40)-OH) is reported as “active”.

B1: βA(26-42)-NH2 (peptide)
peptide: SNKGAIIGLMVGGVVIA-NH2
modifications: also: 125I-labelled after acylation with 4-hydroxyphenylpropionic acid, site not given here
For B1, the fold activity relative to βA(1-40)-OH and βA(1-40)-NH2 (silk) was 3 times and the fold activity relative to β-amyloid peptide [1] was 3 fold.
